Experimental data from US20210054028A1, “BACTERIAL SIDEROPHORE GRAMIBACTIN” (Leibniz-Institut für Naturstoff-Forschung und …, priority 2017, published 2021).
“Also recorded” adds a separate entry of the source. *1 amine or outer side, *2 acyl side, *3 side chain or, on linkers, in order; H or OH if unused. Where a SMILES comes first, the peptide text is derived from it. Bridges are numbered along the chain shown (N, C = ends). [ ]: non-standard residue; d: D form. The star is where a group is joined. dAsp(3R-OH) = N[C@@H](C(=O)O)[C@@H](O)C(=O)O; X1 = O=NN(O)CCC[C@@H](N[*:1])C(=O)[*:2]; d(aThr) = C[C@@H](O)[C@@H](N)C(=O)O; Octanoyl = CCCCCCCC(=O)*

What was measured:
[1] = tested on: corn plants; assay: Chlorophyll content determination in hydroponically grown corn plants; format: in vivo, Zea mays L. ssp. saccharata; conditions: 50 μM in nutrient solution; 21 d hydroponic growth; 3rd leaf
Description: Corn plants were grown in nutrient solutions deficient in iron, or supplementing either Fe-EDTA (positive control) or Fe-gramibactin. Solvent and metal-free chelators were used as negative controls. As readout for iron uptake we measured the chlorophyll content of youngest leaves, since chlorophyll biosynthesis is strongly dependent on iron availability (11).
Seeds from maize (Zea mays L. ssp. saccharata) were commercially acquired (Kiepenkerl) and surface sterilized in 4.5% (v/v) sodium hypochlorite for 10 minutes and subsequently rinsed 5 times with 50 mL sterile distilled water. Seeds were germinated in rolled filter papers soaked with sat. CaSO4 solution for 3 d in at 30° C. in the dark. […]
Plants were grown hydroponically for 21 days using the above described adjusted nutrient solution. […] The last developed leaf of each plant (3rd leaf) was removed, and fresh weight was determined. […] The residue was dissolved in 1 mL methanol and 1:10 or 1:20 dilutions with methanol were analysed spectrophotometrically using a Shimadzu UV-1800 spectrophotometer. Samples were measured at 25° C. using discardable plastic cuvettes (d=1 cm). […] Chlorophyll contents were calculated using the equations developed by Wellburn.

[2] = Acid/base titration and speciation of gramibactin; format: physicochemical; conditions: physiological pH; I=0.1 M KCl; 25 °C
From the text: (§1) To evaluate the actual strength of the siderophore, we conducted potentiometric and spectrophotometric titrations to evaluate the acid/base behavior of gramibactin and to determine the complex formation constant of the iron complex (FIG. 2C). […] It thus appeared conceivable that the rhizosphere bacteria excrete the metal chelator to provide the host plant with iron.
(§2) Potentiometric ligand competition measurements and calculations have been performed as reported (11) at l=0.1 M in KCl(aq) and at T=25.0±0.1° C., using a Mettler Toledo DL50 apparatus, equipped with a Schott Instruments N6180 combined glass electrode, controlled by LabX light v1.05 software. The titrand solutions consisted in gramibactin (from 0.7 mm to 1 mm), EDTA (as disodium salt) and Fe^3+ (as FeCl3) in different gramibactin:Fe^3+:EDTA ratios, with slight known excess of HCl.
(§3) This can be explained by a buffering effect of the two N-nitroso-hydroxylamine moieties. […]
(§4) Titrations were carried out at 0.1 m in KCl(aq) and T=25.0±0.1° C. in a glass cuvette (d=10.00 mm) placed in the spectrometer equipped with a thermostated cell holder. The pH was read out by using a inoLab pH 7110 with a combination electrode (SI analytics, ScienceLine Type N 6000 A). […] UV/Vis-spectra were recorded after every addition of KOH(aq) followed by magnetic stirring (FIG. 12).

[3] = tested on: corn roots; assay: In planta NO release assay with DAF-2DA, fluorescence microscopy; format: in vivo, Zea mays L. ssp. saccharata; conditions: 100 μM; 1.5-2 h after loading with 10 μM DAF-2DA
Description: To verify the postulated NO release in planta we treated fresh corn seedlings with diaminofluoresceine-2-diacetate (DAF-2DA), a cell-permeable probe that captures NO with formation of a highly fluorescent triazole. After loading maize roots with the chemical probe they were incubated with negative controls, gramibactin, or Fe-gramibactin, then cut and inspected by fluorescence microscopy. […] Thus, NO is in fact liberated from gramibactin in the plant tissue. A weak signal was also detectable in the root treated with the Fe-gramibactin complex. This finding is important as it confirms that iron is removed from gramibactin in vivo, thus providing free ligands that can subsequently release nitric oxide. Finally, fluorescence microscopy also allowed localizing NO, which is apparently released into the intracellular space. This observation is plausible as peroxidases, which are required for NO release, are typically located in the cell membrane.
Young seedlings (2-3 days old) were placed in a vial containing 4 mL standard nutrient solution (see above) with 10 μm 4,5-diaminofluorescein diacetate and incubated at room temperature for 30 min. Seedlings were then removed, and the root was rinsed with deionized water before placing them in nutrient solution containing 100 μm gramibactin, 100 μm Fe-gramibactin or no additive (control). […]

[4] = Potentiometric and spectrophotometric titrations of the gramibactin/Fe3+ system with EDTA as competitive chelating agent; format: physicochemical; conditions: I=0.1 M KCl
From the text: as §1, §2, §3, §4

[5] = tested on: extracted proteins from corn roots; assay: In vitro NO release assay with 2,3-diaminonaphthalene probe; format: biochemical, Zea mays L. ssp. saccharata; conditions: 2 mM test substance, 1.2 mM H2O2, 0.2 mM DAN, root proteins, 20 min, pH 6
Description: To probe the proposed enzymatic NO release in vitro, we extracted soluble proteins from ground root tissue of hydroponically grown plants into phosphate buffer. To monitor the liberation of NO in the in vitro enzyme assay, we used 2,3-diaminonaphthalene (DAN) as a reporter. Nitric oxide reacts with this chemical probe to form the 2,3-napthotriazole, and its strong fluorescence can be readily measured using a microplate reader. Extracted root proteins were incubated with the probe, hydrogen peroxide and either Fe-gramibactin or the iron-free ligand, using heat-inactivated proteins as negative control. […] Thus, gramibactin represents a novel NO donor.
One-week-old plants were harvested and the roots were rinsed with distilled water. After separating the roots from the shoot, the root tissue was frozen using liquid nitrogen and grounded with mortar and pestle. The plant material was then extracted using 1 mL 66 mm NaH2PO4 buffer (pH 6). The extract was centrifuged to remove remaining plant material, and 20 μL of the supernatant were used for in vitro assays. […] Fluorescence was measured using a Varioskan LUX (Thermo Scientific) microplate reader (IEx.=375 nm, IEm.=415 nm). Fluorescence values were normalized to the sample with the highest fluorescence. Every assay was performed in triplicates and every replicate was measured three times, and the mean of all these replicates was plotted. […]

SMILES	higher total chlorophyll content versus iron-free cultured plants [1] [%]	protonation state of graminine residues (speciation diagram) [2]	DAF-2T fluorescence signal in root cross sections (NO release in planta) [3]	log □ (complex formation constant of the iron complex) ([4]; disodium EDTA as competitive chelating agent, T=25.0±0.1 °C)	protons released upon metal complexation ([4]; potentiometric titration, gramibactin:Fe3+ 1:1, 25 °C)	fluorescence of 2,3-naphthotriazole (NO release) [5]
O=C([O-])CN(CCN(CC(=O)[O-])CC(=O)[O-])CC(=O)[O-].[Fe+3] [Fe-EDTA]	50					
CCCCCCCC(=O)N[C@@H](C(=O)N[C@@H]1C(=O)N[C@H]([C@@H](C)O)C(=O)N[C@H](CCCN(O)N=O)C(=O)NCC(=O)N[C@H](CCCN(O)N=O)C(=O)O[C@@H]1C)[C@@H](O)C(=O)O [gramibactin] (Octanoyl-[dAsp(3R-OH)]T[d(aThr)][X1]G[X1]; ester 2-C)		both graminine residues are deprotonated at physiological pH	strong signal; also recorded: liberates NO	27.6±0.1	four	drastically increased fluorescence; also recorded: liberates NO
